PubChem BioAssay (NCI)
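GI50 = concentration required for 50% inhibition of growth. Definition used: TGI = concentration required for complete inhibition of growth.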

Assays:
Assay in all cases: NCI tumour cell line growth inhibition, 384-well format
786-0 renal = test system: 786-0 renal
A498 renal = test system: A498 renal
A549 NSCLC = test system: A549 NSCLC
ACHN renal = test system: ACHN renal
BT-549 breast = test system: BT-549 breast
CAKI-1 renal = test system: CAKI-1 renal
CCRF-CEM leukemia = test system: CCRF-CEM leukemia
COLO 205 colon = test system: COLO 205 colon
DU-145 prostate = test system: DU-145 prostate
EKVX NSCLC = test system: EKVX NSCLC
HCC-2998 colon = test system: HCC-2998 colon
HCT-116 colon = test system: HCT-116 colon
HCT-15 colon = test system: HCT-15 colon
HL-60(TB) leukemia = test system: HL-60(TB) leukemia
HOP-62 NSCLC = test system: HOP-62 NSCLC
HOP-92 NSCLC = test system: HOP-92 NSCLC
HS 578T breast = test system: HS 578T breast
HT29 colon = test system: HT29 colon
IGROV1 ovarian = test system: IGROV1 ovarian
K-562 leukemia = test system: K-562 leukemia
KM12 colon = test system: KM12 colon
LOX IMVI melanoma = test system: LOX IMVI melanoma
M14 melanoma = test system: M14 melanoma
MALME-3M melanoma = test system: MALME-3M melanoma
MCF7 breast = test system: MCF7 breast
MDA-MB-231 breast = test system: MDA-MB-231 breast
MDA-MB-435 melanoma = test system: MDA-MB-435 melanoma
MDA-MB-468 breast = test system: MDA-MB-468 breast
MOLT-4 leukemia = test system: MOLT-4 leukemia
NCI-H226 lung = test system: NCI-H226 lung
NCI-H23 lung = test system: NCI-H23 lung
NCI-H322M lung = test system: NCI-H322M lung
NCI-H460 NSCLC = test system: NCI-H460 NSCLC
NCI-H522 lung = test system: NCI-H522 lung
NCI/ADR-RES ovarian = test system: NCI/ADR-RES ovarian
OVCAR-3 ovarian = test system: OVCAR-3 ovarian
OVCAR-4 ovarian = test system: OVCAR-4 ovarian
OVCAR-5 ovarian = test system: OVCAR-5 ovarian
OVCAR-8 ovarian = test system: OVCAR-8 ovarian
PC-3 prostate = test system: PC-3 prostate
RXF 393 renal = test system: RXF 393 renal
SF-268 CNS = test system: SF-268 CNS
SF-295 CNS = test system: SF-295 CNS
SF-539 CNS = test system: SF-539 CNS
SK-MEL-2 melanoma = test system: SK-MEL-2 melanoma
SK-MEL-28 melanoma = test system: SK-MEL-28 melanoma
SK-MEL-5 melanoma = test system: SK-MEL-5 melanoma
SK-OV-3 ovarian = test system: SK-OV-3 ovarian
SN12C renal = test system: SN12C renal
SNB-19 CNS = test system: SNB-19 CNS
SNB-75 CNS = test system: SNB-75 CNS
SR leukemia = test system: SR leukemia
SW-620 colon = test system: SW-620 colon
T-47D breast = test system: T-47D breast
TK-10 renal = test system: TK-10 renal
U251 glioblastoma = test system: U251 glioblastoma
UACC-257 melanoma = test system: UACC-257 melanoma
UACC-62 melanoma = test system: UACC-62 melanoma
UO-31 renal = test system: UO-31 renal

O=C(Nc1ccc(O)c(NS(=O)(=O)c2ccc(F)cc2)c1)c1ccc(-c2ccccc2)cc1
GI50 ([…]-0 renal): 3.74 µM | TGI (786-0 renal): 12.6 µM | GI50 (A498 renal): 3.57 µM | TGI (A498 renal): 15.1 µM | GI50 (A549 NSCLC): 5.05 µM | TGI (A549 NSCLC): 17 µM | GI50 (ACHN renal): 6.99 µM | TGI (ACHN renal): 19.7 µM | GI50 (BT-549 breast): 4.01 µM | TGI (BT-549 breast): 13.1 µM | GI50 (CAKI-1 renal): 5.16 µM | TGI (CAKI-1 renal): 17.7 µM | GI50 (CCRF-CEM leukemia): 2.24 µM | TGI (CCRF-CEM leukemia): 4.11 µM | GI50 (COLO 205 colon): 11.5 µM | TGI (COLO 205 colon): 24 µM | GI50 (DU-145 prostate): 10.1 µM | TGI (DU-145 prostate): 21.8 µM | GI50 (EKVX NSCLC): 4.13 µM | TGI (EKVX NSCLC): 14 µM | GI50 (HCC-2998 colon): 4.56 µM | TGI (HCC-2998 colon): 10.3 µM | GI50 (HCT-116 colon): 3.71 µM | TGI (HCT-116 colon): 12.7 µM | GI50 (HCT-15 colon): 3.84 µM | TGI (HCT-15 colon): 11.8 µM | GI50 (HL-60(TB) leukemia): 1.55 µM | TGI (HL-60(TB) leukemia): 2.91 µM | GI50 (HOP-62 NSCLC): 9.69 µM | TGI (HOP-62 NSCLC): 21.4 µM | GI50 (HOP-92 NSCLC): 4.12 µM | TGI (HOP-92 NSCLC): 14.4 µM | GI50 (HS 578T breast): 2.93 µM | TGI (HS 578T breast): 15.5 µM | GI50 (HT29 colon): 12 µM | TGI (HT29 colon): 24.5 µM | GI50 (IGROV1 ovarian): 3.62 µM | TGI (IGROV1 ovarian): 12.2 µM | GI50 (K-562 leukemia): 3.68 µM | TGI (K-562 leukemia): 13.5 µM | GI50 (KM12 colon): 5.26 µM | TGI (KM12 colon): 18.3 µM | GI50 (LOX IMVI melanoma): 3.87 µM | TGI (LOX IMVI melanoma): 15 µM | GI50 (M14 melanoma): 6.4 µM | TGI (M14 melanoma): 19 µM | GI50 (MALME-3M melanoma): 4.06 µM | TGI (MALME-3M melanoma): 15.4 µM | GI50 (MCF7 breast): 3.87 µM | TGI (MCF7 breast): 15.4 µM | GI50 (MDA-MB-231 breast): 3.36 µM | TGI (MDA-MB-231 breast): 13.5 µM | GI50 (MDA-MB-435 melanoma): 7.4 µM | TGI (MDA-MB-435 melanoma): 20.2 µM | GI50 (MDA-MB-468 breast): 2.08 µM | TGI (MDA-MB-468 breast): 7.66 µM | GI50 (MOLT-4 leukemia): 1.69 µM | TGI (MOLT-4 leukemia): 3.12 µM | GI50 (NCI-H226 lung): 8.98 µM | TGI (NCI-H226 lung): 21.1 µM | GI50 (NCI-H23 lung): 6.12 µM | TGI (NCI-H23 lung): 18.6 µM | GI50 (NCI-H322M lung): 4.58 µM | TGI (NCI-H322M lung): 16.6 µM | GI50 (NCI-H460 NSCLC): 2.9 µM | TGI (NCI-H460 NSCLC): 10.3 µM | GI50 (NCI-H522 lung): 2.3 µM | TGI (NCI-H522 lung): 6.5 µM | GI50 (NCI/ADR-RES ovarian): 5.28 µM | TGI (NCI/ADR-RES ovarian): 17.5 µM | GI50 (OVCAR-3 ovarian): 2.86 µM | TGI (OVCAR-3 ovarian): 10.6 µM | GI50 (OVCAR-4 ovarian): 3.24 µM | TGI (OVCAR-4 ovarian): 14.5 µM | GI50 (OVCAR-5 ovarian): 10.2 µM | TGI (OVCAR-5 ovarian): 21.9 µM | GI50 (OVCAR-8 ovarian): 3.73 µM | TGI (OVCAR-8 ovarian): 14.1 µM | GI50 (PC-3 prostate): 3.94 µM | TGI (PC-3 prostate): 14.4 µM | GI50 (RXF 393 renal): 1.68 µM | TGI (RXF 393 renal): 4.57 µM | GI50 (SF-268 CNS): 4.51 µM | TGI (SF-268 CNS): 15.2 µM | GI50 (SF-295 CNS): 10.5 µM | TGI (SF-295 CNS): 22.4 µM | GI50 (SF-539 CNS): 5.63 µM | TGI (SF-539 CNS): 18.4 µM | GI50 (SK-MEL-2 melanoma): 10.4 µM | TGI (SK-MEL-2 melanoma): 22.2 µM | GI50 (SK-MEL-28 melanoma): 11.4 µM | TGI (SK-MEL-28 melanoma): 23.8 µM | GI50 (SK-MEL-5 melanoma): 4.13 µM | TGI (SK-MEL-5 melanoma): 15.3 µM | GI50 (SK-OV-3 ovarian): 6.15 µM | TGI (SK-OV-3 ovarian): 18.4 µM | GI50 (SN12C renal): 7.38 µM | TGI (SN12C renal): 19.7 µM | GI50 (SNB-19 CNS): 7.07 µM | TGI (SNB-19 CNS): 19.3 µM | GI50 (SNB-75 CNS): 9.53 µM | TGI (SNB-75 CNS): 21.2 µM | GI50 (SR leukemia): 1.65 µM | TGI (SR leukemia): 3.17 µM | GI50 (SW-620 colon): 10.2 µM | TGI (SW-620 colon): 22 µM | GI50 (T-47D breast): 8 µM | TGI (T-47D breast): 20.7 µM | GI50 (TK-10 renal): 3.61 µM | TGI (TK-10 renal): 11.8 µM | GI50 (U251 glioblastoma): 5.41 µM | TGI (U251 glioblastoma): 17.1 µM | GI50 (UACC-257 melanoma): 7.05 µM | TGI (UACC-257 melanoma): 19.8 µM | GI50 (UACC-62 melanoma): 4.96 µM | TGI (UACC-62 melanoma): 17.6 µM | GI50 (UO-31 renal): 5.25 µM | TGI (UO-31 renal): 16.9 µM

CC#CC(=O)N[C@H]1CCCN(c2c(F)cc(C(N)=O)c3[nH]c(C)c(C)c23)C1
GI50 ([…]-0 renal): 15.9 µM | TGI (786-0 renal): 33.2 µM | GI50 (A498 renal): 14.7 µM | TGI (A498 renal): 28.4 µM | GI50 (A549 NSCLC): 18.1 µM | TGI (A549 NSCLC): 37.9 µM | GI50 (CCRF-CEM leukemia): 16.9 µM | TGI (CCRF-CEM leukemia): 30.8 µM | GI50 (DU-145 prostate): 18.1 µM | TGI (DU-145 prostate): 37.2 µM | GI50 (HCC-2998 colon): 11.1 µM | TGI (HCC-2998 colon): 23.2 µM | GI50 (HCT-116 colon): 13.8 µM | TGI (HCT-116 colon): 27.3 µM | GI50 (HCT-15 colon): 10.8 µM | TGI (HCT-15 colon): 22.9 µM | GI50 (HOP-92 NSCLC): 15 µM | TGI (HOP-92 NSCLC): 33.7 µM | GI50 (K-562 leukemia): 15 µM | TGI (K-562 leukemia): 28.9 µM | GI50 (LOX IMVI melanoma): 15.4 µM | TGI (LOX IMVI melanoma): 28.9 µM | GI50 (MALME-3M melanoma): 18 µM | TGI (MALME-3M melanoma): 32 µM | GI50 (MDA-MB-435 melanoma): 17.2 µM | TGI (MDA-MB-435 melanoma): 34.1 µM | GI50 (MDA-MB-468 breast): 2.88 µM | TGI (MDA-MB-468 breast): 11.1 µM | GI50 (MOLT-4 leukemia): 14 µM | TGI (MOLT-4 leukemia): 27.1 µM | GI50 (NCI-H322M lung): 16.2 µM | TGI (NCI-H322M lung): 30.9 µM | GI50 (NCI-H460 NSCLC): 15.8 µM | TGI (NCI-H460 NSCLC): 29.6 µM | GI50 (NCI-H522 lung): 4.54 µM | TGI (NCI-H522 lung): 17.5 µM | GI50 (OVCAR-3 ovarian): 14.5 µM | TGI (OVCAR-3 ovarian): 28 µM | GI50 (OVCAR-4 ovarian): 13.4 µM | TGI (OVCAR-4 ovarian): 26.6 µM | GI50 (OVCAR-5 ovarian): 16.9 µM | TGI (OVCAR-5 ovarian): 38.4 µM | GI50 (SF-295 CNS): 13.9 µM | TGI (SF-295 CNS): 26.9 µM | GI50 (SF-539 CNS): 15.3 µM | TGI (SF-539 CNS): 28.8 µM | GI50 (SK-MEL-28 melanoma): 18.5 µM | TGI (SK-MEL-28 melanoma): 33.1 µM | GI50 (SK-MEL-5 melanoma): 13.8 µM | TGI (SK-MEL-5 melanoma): 26.8 µM | GI50 (SK-OV-3 ovarian): 14.4 µM | TGI (SK-OV-3 ovarian): 34.3 µM | GI50 (SN12C renal): 14.9 µM | TGI (SN12C renal): 28.9 µM | GI50 (SNB-19 CNS): 17.3 µM | TGI (SNB-19 CNS): 32.4 µM | GI50 (T-47D breast): 5.36 µM | TGI (T-47D breast): 18.6 µM | GI50 (TK-10 renal): 21 µM | TGI (TK-10 renal): 58.6 µM | GI50 (U251 glioblastoma): 17.3 µM | TGI (U251 glioblastoma): 31.4 µM | GI50 (UACC-257 melanoma): 11.5 µM | TGI (UACC-257 melanoma): 23.7 µM
